In article PMC10388299, “Design, Synthesis, and Biological Evaluation of 2-Hydroxy-4-phenylthiophene-3-carbonitrile as PD-L1 Antagonist and Its Comparison to Available Small Molecular PD-L1 Inhibitors” (Journal of Medicinal Chemistry, 2023):
Entries after “also recorded” stand apart in the source; their conditions may differ. Structures can show the parent of a compound that is named as a salt. Where two headings read alike, the source gives them in different places. One block for each compound: values may come before it.

Columns and labels:
[1] = target: T1, PD-L1 (Homo sapiens, UniProt Q9NZQ7); test: NMR binding assay (1H and 1H-15N HMQC); conditions: molar ratio 1:1
T1 construct: The PD-L1 protein (18–134) was expressed in the Escherichia coli BL21 (DE3); made in house; host or cells: Escherichia coli BL21 (DE3)
Source text: To investigate if our synthesized analogs are capable of disrupting PD-1/PD-L1 binding, we performed our previously described nuclear magnetic resonance (NMR) assay.[16] […] The PD-L1 dimerization causes peaks of the ^1H aliphatic part PD-L1 spectrum to flatten (peak at −0.4 ppm) or disappear in the case of peaks from ^1H–^15N HMQC spectrum. Dimerization of PD-L1, in turn, prevents its binding to the PD-1.
For NMR measurements, the buffer was exchanged by gel filtration to PBS pH 7.4. 10% (v/v) of D2O was added to the samples to provide the lock signal. All spectra were recorded at 300 K using a Bruker Avance III 600 MHz spectrometer equipped with the nitrogen cryo-probe head.
Determination of binding of compounds to PD-L1 was carried out with the ^1H NMR. […] The molecular weight of each complex was estimated from relaxation time analysis, which can only be explained by the compound-induced PD-L1 dimerization. No significant changes were observed upon the addition of the PD-1 with the tested compounds.

[2] = Experimental lipophilicity of 18F tracers; type: physicochemical; conditions: for logP / lipophilicity (in words): 18F tracer; for logP / logD: triplicate; for logP: read-out: experimental log P; for logD: pH 7.4, 18F tracer, read-out: experimental log D7.4
[3] = In vitro stability in formulation solution; type: physicochemical; conditions: for stability in formulation solution (4h): supplementary csv, unit not given; for stability in formulation solution after 4 h: radiochemical purity by TLC, triplicate
Description: (§1) In vitro stability of [^18F]4a and [^18F]9a was evaluated in Tween-80 or PBS (original diluent) and serum. After purification, samples of tracers were mixed with equal volumes of the formulated tracer and solution in which stability was evaluated (100 μL tracer solution with 100 μL Tween-80/PBS) and measured every 30 min for a 4 h period. The radiochemical purity (RCP) of labeled products was measured using thin-layer chromatography (TLC) (silica TLC plates on aluminum, MerckMilipore, USA). The TLCs were developed with appropriate MeOH/DCM eluent system; 10% MeOH/DCM + NH3 for [^18F]4a and 10% MeOH/DCM for [^18F]9a. The distribution of the radioactivity among the TLC plate was measured on GE Amersham Typhoon Scanner using phosphorus plates and ImageQuant TL 1D software for data processing (both GE Healthcare Life Science, USA). The experiment was performed in triplicate.

[4] = target: T2, PD-1/PD-L1 complex (Homo sapiens, UniProt Q9NZQ7); test: HTRF PD-1/PD-L1 assay (Cisbio Human PD1/PD-L1 biochemical binding assay); conditions: disruption of the PD-1/PD-L1 complex; two independent dilution series
T2 construct: purchased Cisbio Bioassays
Description: Presence of inhibitors (small molecules, proteins, and so forth) that disrupt the binding decreases the resulting signal allowing the assessment of the inhibitory activity of tested inhibitors via IC50 (the half maximal inhibitory concentration).
The HTRF assay was performed using the certified Cis-Bio assay kit at 20 μL final volume using their standard protocol as described by Musielak et al.[34] Measurements were performed on individual dilution series to determine the half maximal inhibitory concentration (IC50) of tested compounds. After mixing all components according to the Cis-Bio protocol, the plate was incubated for 2 h at RT. […] For the compounds with IC50 values that were too high due to, e.g., solubility issues, a “dissociation value” at the concentration of 50 μM is presented for the sake of comparability to other inhibitors.

[5] = target: T3, PD-1/PD-L1 (Homo sapiens, UniProt Q9NZQ7); test: Promega PD-1/PD-L1 immune checkpoint blockade assay (Jurkat reporter T cells + aAPCs); type: cell-based; conditions: Jurkat reporter T cells cocultured with aAPCs; an estimation because of cytotoxicity at higher concentrations
T3 construct: host or cells: CHO-K1 aAPCs (PD-L1) and Jurkat effector cells (PD-1)
Description: Additionally, aAPCs and ECs were propagated in a constant presence of hygromycin B (50 μg/mL) and G418 (250 μg/mL) to provide a stable expression of the introduced genetic constructs.
The aAPCs were seeded in white flat bottom 96-well plates at the density of 10 000 cells/well in the culture medium 24 h before the assay and grown overnight in a 5% CO2 37 °C incubator. On the day of the experiment, serial dilutions of tested compounds were prepared first in DMSO and then formulated in RPMI 1640-containing 1% FBS to keep the constant DMSO concentration of 0.1% (v/v). As a negative control, DMSO was used in assay buffer at the concentration of 0.1% (v/v). As a positive control, a serial dilution of durvalumab (an anti-PD-L1 antibody) in assay buffer was used. Meanwhile, the medium of the aAPCs cells was removed, and the compounds’ dilutions were added to the plate (40 μL/well). […] The cell suspension was distributed over the inner 60 wells of the assay plate (20 000 cells/well, 40 μL). The plates were incubated for 6 h in a 5% CO2 incubator at 37 °C. Once the assay time was over, the plate was taken out of the incubator to equilibrate to room temperature. Before measurements, a 75 μL per well of Bio-Glo luciferase substrate was added to the inner 60 wells of the plate. […] The measurement was done on a Spark microplate reader (Tecan), using the standard settings for luminescence reading.

[6] = In vitro stability in human serum; type: in vitro ADME; conditions: for stability in serum (4h): supplementary csv, unit not given; for stability in serum after 4 h: radiochemical purity by TLC, triplicate
Description: as §1

[7] = target: T1, PD-L1; test: Microscale thermophoresis (MST) affinity assay; type: binding
Description: The PD-L1 protein (18–134) was expressed in the Escherichia coli BL21 (DE3) and purified as described previously (Zak et al., 2016).[8] Protein expression was induced with 1 mM isopropyl β-D-1-thiogalactopyranosid (IPTG) at OD600 of 0.8 and the cells were cultured overnight at 37 °C. Afterward protein was refolded by drop-wise dilution into solution containing 0.1 M Tris pH 8.0, 1 M L-arginine hydrochloride, 0.25 mM oxidized glutathione, and 0.25 mM reduced glutathione. After refolding, protein was dialyzed 3 times against buffer containing 10 mM Tris pH 8.0 and 20 mM NaCl. Finally, PD-L1 was purified by SEC (size-exclusion chromatography) on HiLoad 26/600 Superdex 75 column (GE Healthcare) equilibrated with PBS pH 7.4.
PD-L1 was expressed as for NMR experiment. It was diluted to 10 μM and labelled with Protein Labeling Kit RED-NHS 2nd Generation from Nanotemper according to the manufacturer’s guidelines. The degree of labelling for PD-L1 was 0.74, which is with agreement with the protocol. Labelled PD-L1 at 100 nM concentration was then mixed with independent series of 4a and 9a compound dilution series (n = 4) and incubated for 30 min at RT. Next, samples were transferred to dedicated 384-well plate and measured on Diantus equipped with pico detector using auto-excitation and 5 s pulse (Nanotemper) for the affinity measurements. The results were exported, averaged, and fitted in Mathematica 12 using following equations: [drawing 1] where: FB—fraction bound, [A]—concentration of unlabeled titrated partner, [B]—concentration of fluorescent labeled partner that is fixed, [AB]—concentration of bound complex of A and B, Kd—equilibrium dissociation constant.

[8] = target: T1, PD-L1; set-up: method as in PMID 17985865; conditions: by means of NMR, HTRF, and cellular assays; cited from earlier work
[9] = system: murine PD-L1; set-up: method as in PMID 17985865; conditions: by means of NMR, HTRF, and cellular assays; cited from earlier work
[10] = system: H358 (lung adenocarcinoma) PD-L1^+/– tumor tissue sections; test: Autoradiography with H358 PD-L1+/- tumor tissue sections; type: binding, human; conditions: PD-L1+ vs counterpart H358 tumor sections
Description: (§2) Formalin-fixed paraffin-embedded xenograft tumors (ES2 PD-L1^+/– and H358 PD-L1^+/–) were cut into 4 μm slices and placed on the glass slides. Before each immunohistochemistry and autoradiography experiment, tissue slides were deparaffinized by oven incubation (min 1 h at 60 °C) and xylene washes, then rehydrated through graded alcohol and distilled water. Additionally, heat-induced antigen retrieval with 10 mM citrate buffer pH = 6.0 was performed (15 min 400 W). Snap-frozen human tonsil tissue was a gift from the Pathology Department (UMCG). Before each experiment, they were incubated in cold acetone for 10 min.
(§3) For autoradiography, antigen retrieval and acetone wash were followed by 30 min of incubation with a freshly formulated tracer at a concentration of 0.2 MBq/mL. After washing twice with cold PBS and once with water, slides were left to dry and exposed to phosphorus plates. The image was recorded on GE Amersham Typhoon Biomolecular Imager and analyzed with ImageQuant TL 1D software (both GE Healthcare Life Science, USA).

[11] = system: ES2 (ovarian carcinoma) PD-L1^+/– tumor tissue sections; test: Autoradiography with ES2 PD-L1+/- tumor tissue sections; type: binding, human
Description: as §2, §3

[12] = target: PD-L1; conditions: PD-L1 nanobody, ca. 15 kDa; cited from earlier work
[13] = MST, labelled PD-L1 100 nM, n = 4, read-out: kD to hPD-L1
[14] = supplementary csv, unit inferred, read-out: MST Kd

T1 sequence (Q9NZQ7 18-134): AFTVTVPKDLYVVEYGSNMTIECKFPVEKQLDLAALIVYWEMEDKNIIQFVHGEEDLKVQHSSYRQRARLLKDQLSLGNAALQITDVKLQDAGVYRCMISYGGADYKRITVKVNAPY
T2 sequence (Q9NZQ7 19-238 limits assumed, one chain of several): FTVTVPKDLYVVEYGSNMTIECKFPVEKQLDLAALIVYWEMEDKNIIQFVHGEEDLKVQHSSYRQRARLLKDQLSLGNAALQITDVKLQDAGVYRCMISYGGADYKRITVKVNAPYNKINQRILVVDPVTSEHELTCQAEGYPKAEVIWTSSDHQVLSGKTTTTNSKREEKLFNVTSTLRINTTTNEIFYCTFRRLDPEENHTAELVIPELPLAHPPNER
T3 sequence (Q9NZQ7 19-290): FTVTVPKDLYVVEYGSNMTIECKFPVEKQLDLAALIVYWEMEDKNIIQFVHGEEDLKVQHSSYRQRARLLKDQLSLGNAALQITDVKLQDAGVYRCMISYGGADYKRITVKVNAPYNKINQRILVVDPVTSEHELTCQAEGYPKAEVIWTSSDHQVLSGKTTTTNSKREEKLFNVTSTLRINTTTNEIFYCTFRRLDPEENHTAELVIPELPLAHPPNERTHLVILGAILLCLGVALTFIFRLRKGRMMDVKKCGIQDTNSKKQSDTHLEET

Compound: Cc1c(COc2cc(OCc3cccc(C#N)c3)c(CN3CC(O)C[C@@H]3C(=O)O)cc2Cl)cccc1-c1ccc2c(c1)OCCO2 (stereo in doubt) [9b, (2R,4S)-1-(5-Chloro-2-((3-cyanobenzyl)oxy)-4-((3-(2,3-dihydrobenzo[b][1,4]dioxin-6-yl)-2-methylbenzyl)oxy)benzyl)-4-hydroxypyrrolidine-2-carboxylic Acid, reference compound]
effect on PD-L1 in 1H NMR and 1H-15N HMQC spectra [1]: induces dimerization of PD-L1

Compound: C[C@@H](O)[C@H](NC(=O)N[C@@H](CC(N)=O)c1nc([C@@H](N)CO)no1)C(=O)O [CA-170]
direct binding to human PD-L1 [8]: not a direct binder | direct binding to murine PD-L1 [9]: not a direct binder

Compound: KN035: PD-L1 nanobody, ca. 15 kDa
pKd [12]: 8.5

Further lines, with some results ahead:

logP [2]: 3.6 | logD [2]: 3.9 | effect on PD-L1 in 1H NMR and 1H-15N HMQC spectra [1]: induces dimerization of PD-L1 | stability in formulation solution (4h) [3]: 97.5 | IC50 [4]: 0.00497 µM | stability in serum (4h) [6]: 93.9 | Kd [7, 13]: ~0.027 µM | Kd [7, 14]: 0.0269 µM
Compound: N#Cc1c(-c2ccc(F)cc2)csc1OCc1ccc(CN)cc1 [4a, 2-((4-(Aminomethyl)benzyl)oxy)-4-(4-fluorophenyl)thiophene-3-carbonitrile Hydrochloride]
EC50 [5]: 2.7 µM

logP [2]: 5.2 | logD [2]: 6.5 | stability in formulation solution (4h) [3]: 97.3 | IC50 [4]: 0.00201 µM | stability in serum (4h) [6]: 88.7 | Kd [7, 13]: ~0.008 µM | Kd [7, 14]: 0.00836 µM
Compound: Cc1c(COc2cc(OCc3cccc(C#N)c3)c(CN3C[C@@H](F)C[C@@H]3C(=O)O)cc2Cl)cccc1-c1ccc2c(c1)OCCO2 [9a, (2R,4S)-1-(5-Chloro-2-((3-cyanobenzyl)oxy)-4-((3-(2,3-dihydrobenzo[b][1,4]dioxin-6-yl)-2-methylbenzyl)oxy)benzyl)-4-fluoropyrrolidine-2-carboxylic Acid]
EC50 [5]: 0.88 µM

lipophilicity (in words) [2]: moderate lipophilicity | logP [2]: 3.6 ± 0.4 | logD [2]: 3.9 ± 0.9 | stability in formulation solution after 4 h [3]: 97.5 ± 0.5% | stability in serum after 4 h [6]: 93.9 ± 0.5% | stability in human serum, minimal value [6]: 93%
Compound: N#Cc1c(-c2ccc([18F])cc2)csc1OCc1ccc(CN)cc1 [[^18F]4a]
higher uptake in PD-L1+ H358 tumors [10]: 40–55% | background uptake ([11]; compared with [^18F]9a): lower background uptake than [^18F]9a | discrimination between wild-type and knock-out ES2 slides ([11]; paraffin-embedded sections): failed to discriminate between wild-type and knock-out; also recorded: unable to bind specifically

lipophilicity (in words) [2]: high lipophilicity | logP [2]: 5.2 ± 0.6 | logD [2]: 6.5 ± 0.2 | stability in formulation solution after 4 h [3]: 97.3 ± 1.1% | stability in serum after 4 h [6]: 88.7 ± 5.7% | stability in human serum, minimal value [6]: 82%
Compound: Cc1c(COc2cc(OCc3cccc(C#N)c3)c(CN3C[C@@H]([18F])C[C@@H]3C(=O)O)cc2Cl)cccc1-c1ccc2c(c1)OCCO2 [[^18F]9a]
higher uptake in PD-L1+ H358 tumors [10]: 40–55%
